This is an account of results in article PMC10056443, “Derivatives of Amaryllidaceae Alkaloid Ambelline as Selective Inhibitors of Hepatic Stage of Plasmodium berghei Infection In Vitro” (Pharmaceutics, 2023).

Where two headings read alike, the source gives them in different places.

The test system of data set [1] is hepatic stage of P. berghei. In words: In vitro activity against P. berghei hepatic stages (luciferase-expressing sporozoites in Huh-7 cells, bioluminescence). The settings on record: Plasmodium berghei; for activity at 1 µM / activity at 10 µM: Huh-7, 48 h, DMSO = 100, read-out: INFECTION Ø screening. The data set is classed as cell-based, Plasmodium berghei. As to the method:
Activity against the hepatic stage of P. berghei infection was assessed using the human hepatoma cell line Huh-7 (deposited at the Japanese Collection of Research Bioresources under JCRB0403). The protocol was previously comprehensively described by Prudêncio et al. and by Ploemen et al.. […] Cells were seeded in 96-well plates at a density of 1 × 10^4 cells per well in 100 µL of culture medium and incubated at 37 °C with 5% CO2 for approximately 18 h. […] The culture medium was substituted by infection medium with diluted compounds 1 hour in advance of infection. Luciferase-expressing P. berghei sporozoites (PbA-LuciGFPcon spz) were freshly obtained through the dissection of salivary glands from infected female Anopheles stephensi mosquitoes. Sporozoites were added to the cells at 1:1 ratio, i.e., 1 × 10^4 sporozoites were added per well, and then subjected to centrifugation at 1800× g for 5 min. The plate was then incubated for 46 h at 37 °C with 5% CO2, at which time Huh-7 cell confluency was indirectly assessed by the alamarBlue assay (Invitrogen, Waltham, MA, USA), as reported in the manufacturer’s protocol. Parasite load was assessed 48 h post-infection by a bioluminescence assay, as reported by the manufacturer (Biotium, Fremont, CA, USA). GraphPad Prism 8 (GraphPad Software, Inc., La Jolla, CA, USA) was used to obtain IC50 values using nonlinear regression analysis to fit the dose-response curves normalized results.

The next data set deals with Huh-7 cell line. The data set is described as follows: Huh-7 cell confluency by alamarBlue assay during hepatic-stage test. The format is cell-based. As to the method: Activity against the hepatic stage of P. berghei infection was assessed using the human hepatoma cell line Huh-7 (deposited at the Japanese Collection of Research Bioresources under JCRB0403). The protocol was previously comprehensively described by Prudêncio et al. and by Ploemen et al.. Briefly, cell culture medium consisted of 1640 RPMI medium supplemented with 10% v/v fetal calf serum, 1% v/v L-glutamine, 1% v/v nonessential amino acids, 1% v/v penicillin/streptomycin, and 10 mM HEPES, pH 7. Cells were seeded in 96-well plates at a density of 1 × 10^4 cells per well in 100 µL of culture medium and incubated at 37 °C with 5% CO2 for approximately 18 h. […] The culture medium was substituted by infection medium with diluted compounds 1 hour in advance of infection. Luciferase-expressing P. berghei sporozoites (PbA-LuciGFPcon spz) were freshly obtained through the dissection of salivary glands from infected female Anopheles stephensi mosquitoes. Sporozoites were added to the cells at 1:1 ratio, i.e., 1 × 10^4 sporozoites were added per well, and then subjected to centrifugation at 1800× g for 5 min. The plate was then incubated for 46 h at 37 °C with 5% CO2, at which time Huh-7 cell confluency was indirectly assessed by the alamarBlue assay (Invitrogen, Waltham, MA, USA), as reported in the manufacturer’s protocol. Parasite load was assessed 48 h post-infection by a bioluminescence assay, as reported by the manufacturer (Biotium, Fremont, CA, USA). GraphPad Prism 8 (GraphPad Software, Inc., La Jolla, CA, USA) was used to obtain IC50 values using nonlinear regression analysis to fit the dose-response curves normalized results.

Data set [2] can be described thus: Cytotoxicity assessment in vitro (MTT assay). The settings on record: human. The format is cell-based. The protocol:
(§1) HepG2 cells of human hepatocellular carcinoma (ATCC HB-8065; passage 20–25), purchased from Health Protection Agency Culture Collections (ECACC, Salisbury, UK), were cultured in Minimum Essential Medium Eagle supplemented with 10% v/v fetal bovine serum and 1% v/v L-glutamine solution (Sigma-Aldrich, St. Louis, MO, USA) at 37 °C in a humidified atmosphere containing 5% CO2. For passaging, the cells were treated with trypsin/EDTA (Sigma-Aldrich, St. Louis, MO, USA) at 37 °C and then harvested. For the cytotoxicity evaluation, the cells treated with the test substances were used, while untreated HepG2 cells served as a control group. The cells were seeded in a 96-well plate at a density of 1 × 10^4 cells per well and incubated for 24 h. All tested compounds were dissolved in DMSO to prepare 10 mM stock solutions and diluted to the desired concentration just before the cell treatment. Cytotoxicity of all studied derivatives was screened at 10 μM concentration, and all samples were measured in triplicates. Positive and negative controls were also included. Plates were incubated for 24 h in a humidified atmosphere containing 5% CO2 at 37 °C. After the incubation, a solution of thiazolyl blue tetrazolium bromide (Sigma-Aldrich, St. Louis, MO, USA) in RPMI 1640 medium without phenol red (BioTech, Prague, Czech Republic) was added and incubated for 3 h in a humidified atmosphere containing 5% CO2 at 37 °C. Afterwards, formazan crystals were dissolved in DMSO, and the absorbance of samples was recorded at 570 nm (Synergy Neo2 Multi-Mode Reader NEO2SMALPHAB; BioTek, Winooski, VT, USA).
On the technique in general: Tetrazolium assays rely on reduction of a dye to a coloured formazan, in cell work by metabolically active cells.

The next data set concerns HepG2 cells. The data set is described as follows: Cytotoxicity assessment in vitro (MTT assay). The format is cell-based. The protocol: as §1
Data set [3] has as its system P. falciparum NF54 ring-stage synchronized cultures. The data set is described as follows: In vitro activity against P. falciparum blood stages (flow cytometry, SYBR green I). The data set is classed as cell-based, Plasmodium falciparum. The settings on record: Control = 7.76333, 48 h. The protocol: Activity against the blood stage of P. falciparum infection was assessed by flow cytometry analysis following the incubation of either test compounds or the drug vehicle (DMSO) with ring-stage synchronized parasite cultures, as previously described. Stock solutions of the test compounds, as well as of the positive control compound chloroquine, were prepared in DMSO and diluted to test concentrations in complete malaria culture medium (CMCM), i.e., 1640 RPMI medium supplemented with 25 mM HEPES, 2.4 mM L-glutamine, 50 µg/mL gentamicin, 0.5% w/v Albumax, 11 mM glucose, 1.47 mM hypoxanthine, and 37.3 mM NaHCO3. Samples at tested concentration were then incubated with ring-stage synchronized cultures of P. falciparum NF54 at 2.5% hematocrit and at approximately 1% parasitemia in 96-well plates at 37 °C in a 5% CO2 and 5% O2 atmosphere. Forty-eight hours post incubation, parasite load was assessed by flow cytometry, upon staining with the DNA-specific dye SYBR green I. Approximately 100,000 events were analyzed in each flow cytometry measurement.
A general note: A flow cytometer gives signals particle by particle.

[4] abbreviates: Huh-7, replicate 1, unit (Table 1: µM), read-out: Antiplasmodial activity - IC50 determination, 1. measurement.
The mark [5] stands for this setting: Huh-7, replicate 2, unit (Table 1: µM), read-out: Antiplasmodial activity - IC50 determination, 2. measurement.
[6] abbreviates: hepatic stage, Huh-7 cells, parasite load 48 h post-infection, read-out: IC50 P. berghei.
Setting [7] is: Huh-7, replicate 3, unit (Table 1: µM), read-out: Antiplasmodial activity - IC50 determination, 3. measurement.

By IC50 is commonly meant the concentration at which inhibition is half-maximal. One may read the viability as a read-out of living cells in per cent, often relative to untreated cells. `CCOc1cc(OCC)cc(C(=O)O[C@@H]2CN3Cc4c(cc5c(c4OC)OCO5)[C@@]24C=C[C@H](OC)C[C@@H]34)c1` [28o, 11-O-(3,5-Diethoxybenzoyl)ambelline]: in data set [1], the activity at 1 µM stood at 10.9% and the activity at 10 µM turned out to be 0.0467%. Besides, the IC50 in data set [1] (setting [4]) came out at 0.307 µM. Moreover, the half-inhibitory concentration (IC50) in data set [1] (setting [5]) was determined as 0.326 µM. In addition, the concentration for half-maximal inhibition (IC50) in data set [1] (setting [6]) stood at 0.316 ± 0.013 µM. For the same compound, the “CELL CONFLUENCY Ø screening” value with Huh-7 cell line (human, 46 h, 1 µM, pH 7) is 97.15. Also, the “CELL CONFLUENCY Ø screening” value in the data set with Huh-7 cell line (human, 46 h, 10 µM, pH 7) was determined as 52.09. Also, in data set [2], the viability at 24 h, 10 µM stood at 56 ± 8%. Further, in the data set with HepG2 cells (human, 24 h, 10 µM), the “1. screening of cytotoxic potential, HepG2 cell line” value (shortened to “1. screening of cytotoxic potential”) came to 65.61; the “2. screening of cytotoxic potential, HepG2 cell line” value (“2. screening of cytotoxic potential” for short) was found to be 51.07; the “3. screening of cytotoxic potential, HepG2 cell line” value (“3. screening of cytotoxic potential” below) turned out to be 51.54; the “Ø screening, HepG2 (sheet Graphs)” value amounted to 56.07.

As for `COc1cccc(C(=O)O[C@@H]2CN3Cc4c(cc5c(c4OC)OCO5)[C@@]24C=C[C@H](OC)C[C@@H]34)c1` [28j, 11-O-(3-Methoxybenzoyl)ambelline], the activity at 1 µM in data set [1] came to 10.8%. The activity at 10 µM in data set [1] came out at 0.612%. Moreover, the IC50 came to 0.19 µM in data set [1] (setting [4]), 0.362 µM in data set [1] (setting [5]), 0.232 µM in data set [1] (setting [7]) and 0.261 ± 0.09 µM in data set [1] (setting [6]). Moreover, the “CELL CONFLUENCY Ø screening” value in the data set on Huh-7 cell line (at 1 μM, DMSO = 100, in % (unit assumed)) was determined as 109.9; in the data set on Huh-7 cell line (at 10 μM, DMSO = 100, in % (unit assumed)), 81.02. Also, the viability at 24 h, 10 µM in data set [2] (c = 10 µM, 24 h, MTT, read-out: HepG2 % of cell viability compared to non-treated control (100%)) came to 81 ± 10%. In the data set on HepG2 cells (c = 10 μM, DMSO = 100, in %), the “Ø screening, HepG2 (sheet Graphs)” value was 80.77. Besides, the “1. screening of cytotoxic potential” value with HepG2 cells (c = 10 μM, replicate 1, in %) was 69.18. Besides, in the data set with HepG2 cells (c = 10 μM, replicate 2, in %), the “2. screening of cytotoxic potential” value is 85.98. Moreover, the “3. screening of cytotoxic potential” value in the data set with HepG2 cells (c = 10 μM, replicate 3, in %) was 87.15.

Regarding `COc1c2c(cc3c1OCO3)[C@]13C=C[C@H](OC)C[C@H]1N(C2)C[C@H]3OC(=O)c1cccc(C)c1` [28f, 11-O-(3-Methylbenzoyl)ambelline], in data set [1], the activity at 1 µM came to 15.1%. Besides, the activity at 10 µM in data set [1] worked out at 0.306%. The IC50 in data set [1] (setting [4]) was 0.185 µM; in data set [1] (setting [5]) it was 0.41 µM; in data set [1] (setting [7]) it was 0.357 µM; in data set [1] (setting [6]), 0.317 ± 0.118 µM. Besides, the “CELL CONFLUENCY Ø screening” value with Huh-7 cell line (human, 46 h, 1 µM, pH 7) was 118; in the data set with Huh-7 cell line (human, 46 h, 10 µM, pH 7), 93.35. The viability at 24 h, 10 µM in data set [2] worked out at 75 ± 1%. In the data set on HepG2 cells (human, 24 h, 10 µM), the “1. screening of cytotoxic potential” value was 76.64. In the data set on HepG2 cells (human, 24 h, 10 µM), the “2. screening of cytotoxic potential” value was 74.3. For the same compound, the “3. screening of cytotoxic potential” value in the data set with HepG2 cells (human, 24 h, 10 µM) is 74.27. Besides, the “Ø screening, HepG2 (sheet Graphs)” value in the data set with HepG2 cells (human, 24 h, 10 µM) came out at 75.07.

Regarding `COc1cccc2c1C(=O)c1c(O)c3c(c(O)c1C2=O)C[C@@](O)(C(=O)CO)C[C@@H]3O[C@H]1C[C@H](N)[C@H](O)[C@H](C)O1` [Doxorubicine, reference compound], the viability at 24 h, 10 µM in data set [2] (HepG2 cells, c = 10 µM, 24 h, MTT, read-out: HepG2 % of cell viability compared to non-treated control (100%)) is 66 ± 8%. For the same compound, the “Ø screening, HepG2 (sheet Graphs)” value in the data set with HepG2 cells (c = 10 μM, DMSO = 100, in %) stood at 65.91. Besides, the “1. screening of cytotoxic potential” value with HepG2 cells (c = 10 μM, replicate 1, in %) came to 62.5. Besides, the “2. screening of cytotoxic potential” value in the data set on HepG2 cells (c = 10 μM, replicate 2, in %) turned out to be 75.09. The “3. screening of cytotoxic potential” value with HepG2 cells (c = 10 μM, replicate 3, in %) was determined as 60.13.

As for `CCN(CC)CCCC(C)Nc1ccnc2cc(Cl)ccc12` (stereo not shown) [CQ, chloroquine, reference compound], the “Ø screening, blood stage parasite load” value in data set [3] (at 10 nM) came out at 8.54; in data set [3] (at 500 nM) it was 2.057; in data set [3] (at 100 nm), 2.187.
